For one assay, the system named is fa/fa obese Zucker rats. Briefly: Long-term (12 months) treatment of obese Zucker rats: protection of the pancreas. It counts as in vivo, rat. The source says:
The effect of a long-term (12 months) treatment with rimonabant was studied in Zucker rats with established obesity.
The fa/fa strain of obese Zucker rats is characterized by hyperphagia, obesity, dyslipidaemia and type 2 diabetes.
After 12 months, the fa/fa obese Zucker rats treated with the vehicle show a marked hypertrophy of the pancreas (+38%, p<0.05).

In assay [1] the test system is obese subjects with type 2 diabetes. The experiment in a line: Rio-Diabetes clinical study, 12 months, rimonabant 20 mg versus placebo. It counts as in vivo, human. Here is the method: The Rio-Diabetes clinical study, carried out over 12 months in 1045 obese subjects with type 2 diabetes treated by monotherapy (metformin or sulfonylureas) compares the effect of rimonabant at the dose of 20 mg versus a placebo product in weight reduction; the improvement of glycosylated haemoglobin (HbAlc), of glycemia, of insulinaemia and lipid parameters. A low-calorie diet (deficit of 600 Kcal/day) is prescribed for all the patients and is introduced 4 weeks before the start of the treatment period.
The insulin resistance is evaluated by the HOMA (Homeostasis Model Assessment) test described by Matthew D. R. et al. in Diabetologica, 1985, 28, 412-419.

Setting [2] is: logistic regression analysis with weight as co-variable.
The mark [3] stands for this setting: rimonabant 20 mg, 12 months, p<0.001.

Results on one compound are retold here after patent publication US20090197917A1, “USE OF RIMONABANT FOR THE PREPARATION OF MEDICAMENTS USEFUL IN THE PREVENTION AND TREATMENT OF TYPE 2 DIABETES” (SANOFI-AVENTIS, priority 2005, published 2009).

Consider `Cc1c(C(=O)NN2CCCCC2)nn(-c2ccc(Cl)cc2Cl)c1-c1ccc(Cl)cc1` [rimonabant, N-piperidino-5-(4-chlorophenyl)-1-(2,4-dichlorophenyl)-4-methylpyrazole-3-carboxamide], for which the “hypertrophy of the pancreas” value with fa/fa obese Zucker rats (3 mg/kg/day, vehicle +38%) is “+17%”. Further, the “hypertrophy of the pancreas” value in the assay on fa/fa obese Zucker rats (10 mg/kg/day, p<0.05, vehicle +38%) is reported as “+1%”. Besides, in assay [1] (setting [2]), the “effect independent of the weight loss for the improvement in HDL-c” value is on record as “about 55%”, the “effect independent of the weight loss for the improvement in HbAlc” value is given as “about 55%” and the “effect independent of the weight loss for the triglycerides” value was “about 35%”. Also, in assay [1] (rimonabant 20 mg), the “time after which the loss of weight appears stabilized” value was 6 months. Besides, the “decrease in glycemia on an empty stomach” value in assay [1] (rimonabant 20 mg group, 12 months, p<0.001 vs placebo) is 0.64 ± 1.96 mmol/L. The “improvement in insulin resistance evaluated by the HOMA test” value in assay [1] (rimonabant 20 mg, 12 months) is −0.5±5.7%. In assay [1] (setting [3]), the “decrease of triglycerides compared with the placebo group” value is recorded as “more than 16.4±3.3%”, the “difference in the reduction of the level of HbAlc compared with the placebo” value is listed as 0.7±0.1%, the “greater weight loss than that observed in the placebo group” value amounted to 4.2 ± 0.4 kg and the “increase in the HDL-c level compared with the placebo” value was “greater than 8.4±1.2%”. Moreover, in assay [1] (rimonabant 20 mg, 12 months, p=0.247 vs placebo), the “reduction of insulinaemia on an empty stomach” value is given as 0.7±9.9 μIU/mL. In assay [1] (rimonabant 20 mg, p=0.020), the “reduction in the systolic blood pressure” value was 0.8±12.8 mmHg. For the same compound, the “reduction in the diastolic blood pressure” value in assay [1] (rimonabant 20 mg, p=0.060) came out at 1.9±8.2 mmHg. In addition, in assay [1] (rimonabant 20 mg, then maintained up to 12 months), the “time at which the reduction of HbAlc is maximum” value is on record as 9 months. In addition, the “HbAlc difference compared with the placebo” value in assay [1] (rimonabant combined with a sulfonylurea, p<0.001) stood at 0.7±0.1%. In assay [1] (rimonabant combined with metformin, p<0.001), the “HbAlc difference compared with the placebo” value amounted to 0.7±0.1%. For the same compound, in assay [1] (rimonabant-metformin combination, p<0.001), the “difference in weight loss compared with the placebo group” value stood at 4.3 ± 0.4 kg. Moreover, the “difference in weight loss compared with the placebo group” value in assay [1] (rimonabant-sulfonylurea combination, p<0.001) turned out to be 3.1 ± 0.5 kg.
